Measured values reported in paper PMC10892423 (Pharmaceutics, 2024).
In brackets after ≈: the same amount, converted by molar mass.

Tests used:
[1] = tested on: MBL-producing P. aeruginosa clinical isolates; assay: MIC by broth microdilution (CLSI); format: cell-based, Pseudomonas aeruginosa; details: for MIC: Pseudomonas aeruginosa
Protocol: The DMSO stock solutions of the test compounds were serially diluted to the desired concentrations in CAMHB. Then, 10 μL of the bacterial suspension (5 × 10^5 colony forming units (CFU)/mL) was combined with 200 μL of DMSO stock solutions of the test compounds in 96-well microtiter plates (1% DMSO, final). After the incubation of the plate at 37 °C for 24 h, bacterial growth was visibly evaluated by monitoring the turbidity of the resulting suspension, and the MICs were determined as the lowest concentrations of the test compounds that inhibited the visible growth of the bacteria.

[2] = tested on: MBL-producing P. aeruginosa static biofilms; assay: Anti-biofilm activity, crystal violet staining; format: cell-based, Pseudomonas aeruginosa; details: for Biofilm biomass (OD600): 27 32 mg/L
From the text: inhibitor 27 against MBL-producing P. aeruginosa clinical isolates.
1 Biofilm biomass was quantified by crystal violet staining at OD600.2 %-inhibition of biofilm

[3] = tested on: MBL-producing P. aeruginosa clinical isolates; assay: Broth microdilution checkerboard synergy assay (MIC of ATM in combination); format: cell-based, Pseudomonas aeruginosa; details: for MIC of ATM, alone or in combination: Table 4; for MIC Value of ATM, alone or in combination with ARMA: Table 2
OXA-48 = biological target: T1, OXA-48 (Klebsiella pneumoniae, UniProt Q6XEC0); assay: β-lactamase inhibition, nitrocefin hydrolysis; format: biochemical; details: nitrocefin substrate; read-out: β-Lactamases, IC50 OXA-48
T1 construct: Genes encoding OXA-48 (residues 23–265) and VIM-2 (residues 27–266) were custom-synthesized; made in house
T1 sequence (Q6XEC0 23-265 limits assumed): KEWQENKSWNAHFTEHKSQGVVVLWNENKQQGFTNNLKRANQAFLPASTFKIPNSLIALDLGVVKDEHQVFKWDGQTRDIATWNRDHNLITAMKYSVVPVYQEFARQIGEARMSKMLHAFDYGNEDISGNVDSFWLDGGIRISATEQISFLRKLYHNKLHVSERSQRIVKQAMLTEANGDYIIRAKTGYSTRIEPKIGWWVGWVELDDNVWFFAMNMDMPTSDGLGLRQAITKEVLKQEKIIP
From the text: (§1) Recombinant AmpC from Escherichia coli was produced according to a previously reported protocol. KPC-2 and NDM-1 […] were purchased from LifeSpan Biosciences, Inc. (Lynnwood, WA, USA) (LS-G26598) and RayBiotech, Inc. (Peachtree Corners, GA, USA) (230-00554), respectively. Genes encoding OXA-48 (residues 23–265) and VIM-2 (residues 27–266) were custom-synthesized (Bioneer Inc., Seoul, Republic of Korea) and expressed as previously described. The β-lactamase inhibitory activity of the title compounds was then determined according to the previously reported methods. Briefly, equal volumes (100 μL) of the title compounds (70–0.1 μM in PBS) and diluted enzyme stock were mixed (final concentration 2% of DMSO in 200 μL) in 96-well plates, which were then incubated at 37 °C for 20 min. The incubated mixture was added to each well containing substrates (nitrocefin for AmpC, KPC-2, OXA-48, and VIM-2; and imipenem for NDM-1) of final concentrations of 70 μM for nitrocefin and 100 μM for imipenem. Substrate hydrolysis was monitored at 486 nm (nitrocefin) or 300 nm (imipenem) for 15 min, using a Cytation 5 imaging multimode reader (BioTek Instruments Inc., Winooski, VT, USA). At the plateau level of hydrolysis, the corresponding rates of hydrolysis were compared to those obtained without inhibitors (100%) to determine the percentage of enzyme inhibition at each concentration of the title compounds. The IC50 values of the compounds were derived from sigmoidal dose–response curves, using GraphPad Prism 5 (GraphPad Software, Boston, MA, USA).

AmpC = biological target: T2, AmpC (Escherichia coli, UniProt P00811); assay: β-lactamase inhibition, nitrocefin hydrolysis; format: biochemical
T2 construct: made in house
T2 sequence (P00811 20-377): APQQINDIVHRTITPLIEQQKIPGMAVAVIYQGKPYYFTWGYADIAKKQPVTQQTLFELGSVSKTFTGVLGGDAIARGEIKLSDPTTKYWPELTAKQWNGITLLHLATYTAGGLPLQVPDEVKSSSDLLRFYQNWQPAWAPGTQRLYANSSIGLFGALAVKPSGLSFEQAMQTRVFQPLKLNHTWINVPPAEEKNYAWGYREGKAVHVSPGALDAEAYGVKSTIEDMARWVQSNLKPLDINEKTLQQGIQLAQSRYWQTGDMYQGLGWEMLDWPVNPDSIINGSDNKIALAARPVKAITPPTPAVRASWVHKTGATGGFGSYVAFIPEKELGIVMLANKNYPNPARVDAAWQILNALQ
From the text: as §1

KPC-2 = biological target: T3, KPC-2 (Klebsiella pneumoniae, UniProt Q9F663); assay: β-lactamase inhibition, nitrocefin hydrolysis; format: biochemical; details: nitrocefin substrate; read-out: β-Lactamases, IC50 KPC-2
T3 construct: purchased LifeSpan Biosciences, Inc. LS-G26598
T3 sequence (Q9F663 25-293, looked up): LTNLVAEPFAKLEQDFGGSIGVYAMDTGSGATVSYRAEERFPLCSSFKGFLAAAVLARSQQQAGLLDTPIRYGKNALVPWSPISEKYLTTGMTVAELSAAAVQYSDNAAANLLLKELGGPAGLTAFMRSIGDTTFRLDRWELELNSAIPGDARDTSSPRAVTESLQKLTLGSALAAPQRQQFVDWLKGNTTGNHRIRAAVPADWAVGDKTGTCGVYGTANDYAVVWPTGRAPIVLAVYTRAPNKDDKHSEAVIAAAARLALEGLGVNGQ
From the text: as §1

VIM-2 = biological target: T4, VIM-2 (Escherichia coli, UniProt Q5U7L7); assay: β-lactamase inhibition, nitrocefin hydrolysis; format: biochemical; details: nitrocefin substrate; read-out: β-Lactamases, IC50 VIM-2
T4 construct: Genes encoding OXA-48 (residues 23–265) and VIM-2 (residues 27–266) were custom-synthesized; made in house
From the text: as §1

NDM-1 = biological target: T5, NDM-1 (Klebsiella pneumoniae, UniProt C7C422); assay: β-lactamase inhibition, imipenem hydrolysis; format: biochemical; details: imipenem substrate; read-out: β-Lactamases, IC50 NDM-1
T5 construct: purchased RayBiotech, Inc. 230-00554
T5 sequence (C7C422 29-270, looked up, species assumed): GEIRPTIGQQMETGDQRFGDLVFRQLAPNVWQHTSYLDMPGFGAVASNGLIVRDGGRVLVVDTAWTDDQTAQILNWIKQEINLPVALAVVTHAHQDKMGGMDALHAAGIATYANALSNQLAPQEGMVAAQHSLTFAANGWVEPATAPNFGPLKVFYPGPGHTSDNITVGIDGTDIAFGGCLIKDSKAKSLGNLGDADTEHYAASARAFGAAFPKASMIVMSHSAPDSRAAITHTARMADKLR
From the text: as §1

C[C@H]1[C@H](NC(=O)/C(=N\OC(C)(C)C(=O)O)c2csc(N)n2)C(=O)N1S(=O)(=O)O [ATM, aztreonam]
ATM MICs relative to the CLSI antibiotic susceptibility breakpoint (1 mg/L) ([1]; 21 MBL-producing P. aeruginosa strains): 8–64 times higher
MIC ([1]; PA-001, blaNDM): 32 µg/mL (≈ 73.5 µM)
MIC ([1]; PA-002, blaIMP): 64 µg/mL (≈ 147 µM)
MIC ([1]; PA-007, blaNDM): 16 µg/mL (≈ 36.7 µM)
MIC ([1]; PA-008, blaNDM): 16 µg/mL (≈ 36.7 µM)
MIC ([1]; PA-011, blaNDM): 16 µg/mL (≈ 36.7 µM)
MIC ([1]; PA-012, blaNDM): 16 µg/mL (≈ 36.7 µM)
MIC ([1]; PA-016, blaIMP): 64 µg/mL (≈ 147 µM)
MIC ([1]; PA-017, blaNDM): 16 µg/mL (≈ 36.7 µM)
MIC ([1]; PA-019, blaNDM): 16 µg/mL (≈ 36.7 µM)
MIC ([1]; PA-020, blaNDM): 16 µg/mL (≈ 36.7 µM)
MIC ([1]; PA-023, blaNDM): 16 µg/mL (≈ 36.7 µM)
MIC ([1]; PA-025, blaNDM): 16 µg/mL (≈ 36.7 µM)
MIC ([1]; PA-027, blaIMP): 32 µg/mL (≈ 73.5 µM)
MIC ([1]; PA-028, blaNDM): 8 µg/mL (≈ 18.4 µM)
MIC ([1]; PA-029, blaIMP): 64 µg/mL (≈ 147 µM)
MIC ([1]; PA-030, blaIMP): 64 µg/mL (≈ 147 µM)
MIC ([1]; PA-034, blaNDM): 16 µg/mL (≈ 36.7 µM)
MIC ([1]; PA-036, blaNDM): 16 µg/mL (≈ 36.7 µM)
MIC ([1]; PA-038, blaNDM): 16 µg/mL (≈ 36.7 µM)
MIC ([1]; PA-039, blaNDM): 16 µg/mL (≈ 36.7 µM)
MIC ([1]; PA-044, blaNDM): 16 µg/mL (≈ 36.7 µM)
inhibition of biofilm formation ([2]; 1/2 × MIC ATM alone): no significant inhibition of biofilm formation
Biofilm biomass (OD600) ([2]; PA-007, blaNDM, ATM 1/2 MIC (8 mg/L)): 1.03
Biofilm biomass (OD600) ([2]; PA-011, blaNDM, ATM 1/2 MIC (8 mg/L)): 0.51
Biofilm biomass (OD600) ([2]; PA-012, blaNDM, ATM 1/2 MIC (8 mg/L)): 0.23
Biofilm biomass (OD600) ([2]; PA-030, blaIMP, ATM 1/2 MIC (32 mg/L)): 1.84
MIC of ATM, alone or in combination ([3]; PA-001, blaNDM): 32 µg/mL
MIC Value of ATM, alone or in combination with ARMA ([3]; PA-002, blaIMP): 64 µg/mL
MIC of ATM, alone or in combination ([3]; PA-002, blaIMP): 64 µg/mL
MIC Value of ATM, alone or in combination with ARMA ([3]; PA-003, blaVIM): 32 µg/mL
MIC of ATM, alone or in combination ([3]; PA-007, blaNDM): 16 µg/mL
MIC of ATM, alone or in combination ([3]; PA-008, blaNDM): 16 µg/mL
MIC of ATM, alone or in combination ([3]; PA-011, blaNDM): 16 µg/mL
MIC of ATM, alone or in combination ([3]; PA-012, blaNDM): 16 µg/mL
MIC of ATM, alone or in combination ([3]; PA-016, blaIMP): 64 µg/mL
MIC of ATM, alone or in combination ([3]; PA-017, blaNDM): 16 µg/mL
MIC of ATM, alone or in combination ([3]; PA-019, blaNDM): 16 µg/mL
MIC of ATM, alone or in combination ([3]; PA-020, blaNDM): 16 µg/mL
MIC of ATM, alone or in combination ([3]; PA-023, blaNDM): 16 µg/mL
MIC Value of ATM, alone or in combination with ARMA ([3]; PA-025, blaNDM): 16 µg/mL
MIC of ATM, alone or in combination ([3]; PA-025, blaNDM): 16 µg/mL
MIC of ATM, alone or in combination ([3]; PA-027, blaIMP): 32 µg/mL
MIC of ATM, alone or in combination ([3]; PA-028, blaNDM): 8 µg/mL
MIC of ATM, alone or in combination ([3]; PA-029, blaIMP): 64 µg/mL
MIC of ATM, alone or in combination ([3]; PA-030, blaIMP): 64 µg/mL
MIC of ATM, alone or in combination ([3]; PA-034, blaNDM): 16 µg/mL
MIC of ATM, alone or in combination ([3]; PA-036, blaNDM): 16 µg/mL
MIC Value of ATM, alone or in combination with ARMA ([3]; PA-038, blaNDM): 16 µg/mL
MIC of ATM, alone or in combination ([3]; PA-038, blaNDM): 16 µg/mL
MIC of ATM, alone or in combination ([3]; PA-039, blaNDM): 16 µg/mL
MIC of ATM, alone or in combination ([3]; PA-044, blaNDM): 16 µg/mL

NC(=O)[C@@H]1CC[C@@H]2CN1C(=O)N2OS(=O)(=O)O [AVI, avibactam]
concentration at which ATM-potentiating activity was observed ([3]; four representative MBL-producing P. aeruginosa strains (Table 2)): 128 mg/L

O=c1c(OCCC(F)(F)F)c(-c2ccc(F)c(F)c2)oc2cc(O)cc(O)c12 [Compound 22]
IC50 (OXA-48): 39.8 µM
IC50 (AmpC): > 50 µM
IC50 (KPC-2): > 50 µM
IC50 (VIM-2): > 100 µM
IC50 (NDM-1): > 50 µM

O=c1c(OCCC2CCNCC2)c(-c2ccc(F)c(F)c2)oc2cc(O)cc(O)c12 [Compound 31]
IC50 (OXA-48): > 100 µM
IC50 (AmpC): > 50 µM
IC50 (KPC-2): > 50 µM
IC50 (VIM-2): > 100 µM
IC50 (NDM-1): > 50 µM

CC(C)(C)c1ccc(COc2c(-c3ccc(F)c(F)c3)oc3cc(O)cc(O)c3c2=O)cc1 [Compound 6]
IC50 (OXA-48): 37.8 µM
IC50 (AmpC): > 50 µM
IC50 (KPC-2): > 50 µM
IC50 (VIM-2): > 100 µM
IC50 (NDM-1): 14.1 µM

CN(C)CCOc1c(-c2ccc(F)c(F)c2)oc2cc(O)cc(O)c2c1=O [Compound 13]
IC50 (OXA-48): > 100 µM
IC50 (AmpC): > 50 µM
IC50 (KPC-2): > 50 µM
IC50 (VIM-2): > 100 µM
IC50 (NDM-1): > 50 µM

O=c1c(OCCC2CC2)c(-c2ccc(F)c(F)c2)oc2cc(O)cc(O)c12 [Compound 25]
IC50 (OXA-48): 11.4 µM
IC50 (AmpC): > 50 µM
IC50 (KPC-2): 22.8 µM
IC50 (VIM-2): 13.9 µM
IC50 (NDM-1): 22.7 µM

O=c1c(OCCOCCO)c(-c2ccc(F)c(F)c2)oc2cc(O)cc(O)c12 [Compound 9]
IC50 (OXA-48): > 100 µM
IC50 (AmpC): > 50 µM
IC50 (KPC-2): > 50 µM
IC50 (VIM-2): > 100 µM
IC50 (NDM-1): > 50 µM

O=c1c(OCCOCCOCCO)c(-c2ccc(F)c(F)c2)oc2cc(O)cc(O)c12 [Compound 10]
IC50 (OXA-48): > 100 µM
IC50 (AmpC): > 50 µM
IC50 (KPC-2): > 50 µM
IC50 (VIM-2): > 100 µM
IC50 (NDM-1): > 50 µM
